“And” between values parts separate entries of the source, which are not always exact repeats. Equal entries are not always repeated.
Tests used:
human TLR2 = biological target: T1, human TLR2 (Homo sapiens, UniProt O60603); test: HEK-Blue hTLR2 Dose Response (NF-κB SEAP reporter); assay type: cell-based; details: for stimulatory (agonist) activity for hTLR2: HEK-Blue hTLR2
T1 construct: expressed in transfected cells; host or cells: HEK-Blue hTLR2
Procedure: (§1) Toll-Like Receptor (TLR) stimulation is tested by assessing NF-κB activation in the TLR expressing cell lines. HEK-Blue h/mTLR2 cells have been stably transfected with human or mouse TLR2 and CD14. The activity of the test articles are tested on human and mouse TLR2, as potential agonists. The test articles are evaluated at seven concentrations and compared to control ligands (see list below). These steps are performed in triplicate.
[…] Starting from the 5 μg/mL working stock, a series of six 1:4 serial dilutions were made by mixing 100 μL of the previous highest dilution with 300 μL sterile PBS.
(§2) The secreted embryonic alkaline phosphatase (SEAP) reporter is under the control of a promoter inducible by the transcription factor NF-κB. This reporter gene allows the monitoring of signaling through the TLR, based on the activation of NF-κB. In a 96-well plate (200 μL total volume) containing the appropriate cells (50,000-75,000 cells/well), 20 μL of the test article or the positive control ligand (HKLC) is added to the wells. The media added to the wells is designed for the detection of NF-κB induced SEAP expression. After a 16-24-hour incubation the optical density (OD) is read at 650 nm on a Molecular Devices SpectraMax 340PC absorbance detector.

HEK-Blue Null1 cells = test: HEK-Blue Null1 control cell line (control for human TLR2); assay type: cell-based; details: TLR2-free control cells
Procedure: as §2

human TLR2 (hTLR2) [1] = biological target: T2, human TLR2 (hTLR2) (Homo sapiens, UniProt O60603); test: Activation of human TLR2 II: HEK-BLUE-hTLR2 SEAP reporter assay; assay type: cell-based
T2 construct: host or cells: HEK293 (HEK-BLUE-hTLR2)
T2 sequence (O60603 21-784): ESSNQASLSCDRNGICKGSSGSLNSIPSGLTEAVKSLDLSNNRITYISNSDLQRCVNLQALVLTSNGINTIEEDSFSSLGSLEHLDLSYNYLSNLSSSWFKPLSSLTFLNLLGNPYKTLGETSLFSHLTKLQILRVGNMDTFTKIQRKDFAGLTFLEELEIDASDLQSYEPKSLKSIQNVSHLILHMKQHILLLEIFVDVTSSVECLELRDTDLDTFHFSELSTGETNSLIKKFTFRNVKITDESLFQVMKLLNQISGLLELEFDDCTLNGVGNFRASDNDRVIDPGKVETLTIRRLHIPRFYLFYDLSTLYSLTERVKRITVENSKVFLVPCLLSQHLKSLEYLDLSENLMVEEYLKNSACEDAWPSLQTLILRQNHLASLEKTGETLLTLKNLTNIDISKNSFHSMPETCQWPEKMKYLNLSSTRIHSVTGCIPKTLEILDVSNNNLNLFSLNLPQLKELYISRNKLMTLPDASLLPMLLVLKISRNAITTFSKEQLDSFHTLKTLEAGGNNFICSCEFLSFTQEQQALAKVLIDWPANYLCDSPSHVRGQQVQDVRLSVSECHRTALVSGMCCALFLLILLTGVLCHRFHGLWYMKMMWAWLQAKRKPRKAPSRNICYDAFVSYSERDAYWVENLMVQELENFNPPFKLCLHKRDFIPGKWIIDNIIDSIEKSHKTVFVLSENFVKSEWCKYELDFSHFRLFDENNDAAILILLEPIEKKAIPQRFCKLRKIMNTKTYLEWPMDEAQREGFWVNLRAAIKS
T2 sequence (Q9Y2C9 32-796 partner): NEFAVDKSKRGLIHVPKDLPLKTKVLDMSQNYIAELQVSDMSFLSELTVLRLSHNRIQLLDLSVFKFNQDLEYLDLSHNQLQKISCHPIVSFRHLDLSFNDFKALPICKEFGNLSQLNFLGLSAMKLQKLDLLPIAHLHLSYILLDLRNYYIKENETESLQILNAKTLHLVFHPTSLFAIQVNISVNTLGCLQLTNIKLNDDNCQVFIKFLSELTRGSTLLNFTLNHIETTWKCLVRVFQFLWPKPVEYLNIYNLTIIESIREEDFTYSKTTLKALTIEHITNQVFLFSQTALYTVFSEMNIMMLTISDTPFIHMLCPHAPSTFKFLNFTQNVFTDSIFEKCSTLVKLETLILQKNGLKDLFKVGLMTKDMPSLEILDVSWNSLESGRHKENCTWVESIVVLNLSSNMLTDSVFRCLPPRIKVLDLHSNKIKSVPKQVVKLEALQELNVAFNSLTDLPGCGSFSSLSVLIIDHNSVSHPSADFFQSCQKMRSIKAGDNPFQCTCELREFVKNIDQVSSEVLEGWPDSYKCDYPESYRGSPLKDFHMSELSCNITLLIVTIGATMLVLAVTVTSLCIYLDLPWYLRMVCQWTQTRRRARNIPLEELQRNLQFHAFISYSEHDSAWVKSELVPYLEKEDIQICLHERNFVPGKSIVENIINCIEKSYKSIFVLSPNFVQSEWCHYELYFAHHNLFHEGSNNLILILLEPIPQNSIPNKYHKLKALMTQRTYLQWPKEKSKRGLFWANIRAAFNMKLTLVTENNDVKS

[2] = Stability IV: formulation pH at each time point; assay type: physicochemical
Procedure: Each compound was formulated in 0.9% w/w saline with addition of 0.1% w/w EDTA at about pH 5. The formulations were stored in the dark under accelerated conditions (40° C./75% RH) and reference formulations were stored at −80° C. At days 0, 9 and 28, samples were analysed by UHPLC and pH was measured.
The remaining ˜1 mL of solution in the clear glass HPLC vials was stored at 40° C./75% RH and was used to measure pH at each time point.
The formulation pH data recorded at each time point are compiled in Table 19. There was a general trend for the pH to increase with time but the effect was not pronounced.

mouse TLR2 = biological target: T3, mouse TLR2 (Mus musculus, UniProt Q9QUN7); test: HEK-Blue mTLR2 Dose Response (NF-κB SEAP reporter); assay type: cell-based
T3 construct: expressed in transfected cells; host or cells: HEK-Blue mTLR2
T3 sequence (Q9QUN7 25-784): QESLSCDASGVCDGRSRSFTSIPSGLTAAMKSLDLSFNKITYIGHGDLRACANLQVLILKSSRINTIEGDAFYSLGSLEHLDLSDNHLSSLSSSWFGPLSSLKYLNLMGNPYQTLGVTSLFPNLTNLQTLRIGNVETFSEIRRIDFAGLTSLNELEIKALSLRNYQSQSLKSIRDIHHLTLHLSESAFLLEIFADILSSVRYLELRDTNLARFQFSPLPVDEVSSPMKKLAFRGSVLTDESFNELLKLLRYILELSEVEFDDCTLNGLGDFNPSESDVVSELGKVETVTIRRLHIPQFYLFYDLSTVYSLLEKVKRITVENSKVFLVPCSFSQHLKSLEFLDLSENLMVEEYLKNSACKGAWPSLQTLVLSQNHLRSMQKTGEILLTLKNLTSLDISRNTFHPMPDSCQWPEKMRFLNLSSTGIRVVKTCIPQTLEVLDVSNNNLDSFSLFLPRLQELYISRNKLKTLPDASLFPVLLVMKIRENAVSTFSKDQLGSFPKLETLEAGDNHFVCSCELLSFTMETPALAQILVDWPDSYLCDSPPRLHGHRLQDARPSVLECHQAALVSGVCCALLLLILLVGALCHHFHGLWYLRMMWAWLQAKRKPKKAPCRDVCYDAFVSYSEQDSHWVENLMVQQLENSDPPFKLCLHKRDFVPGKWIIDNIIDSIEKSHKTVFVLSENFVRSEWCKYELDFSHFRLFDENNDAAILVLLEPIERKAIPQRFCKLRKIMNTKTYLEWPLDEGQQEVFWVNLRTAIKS
T3 sequence (Q9Y2C9 32-796 partner): as the sequence (Q9Y2C9 32-796 partner) above
Procedure: as §1
A 5 μg/mL working stock was then prepared for each compound from the 20 μg/mL dilution in sterile PBS. Starting from the 5 μg/mL working stock, a series of six 1:4 serial dilutions were made by mixing 100 μL of the previous highest dilution with 300 μL sterile PBS.
as §2

HEK-Blue Null2 cells = test: HEK-Blue Null2 control cell line (control for mouse TLR2); assay type: cell-based; details: TLR2-free control cells
Procedure: as §2

human TLR2 (hTLR2) [3] = biological target: T2, human TLR2 (hTLR2); test: Activation of human TLR2 IV: HEK-BLUE-hTLR2 cells; assay type: cell-based; details: FIG. 4
Procedure: HEK-BLUE-hTLR2 cells are designed for studying the stimulation of human TLR2 (hTLR2) by monitoring the activation of NF-kB. HEK-BLUE-hTLR2 cells are obtained by co-transfection of the hTLR2 and SEAP (secreted embryonic alkaline phosphatase) reporter genes into HEK293 cells. Stimulation with a TLR2 ligand activates NF-kB which induces the production of SEAP.
HEK-BLUE-hTLR2 cells were purchased from InvivoGen (San Diego, CA, USA). Cells were grown in DMEM supplemented with 10% FCS, 100 U/ml penicillin, 100 ug/ml streptomycin and 2 mM L-glutamine, 100 μg/mL Normocin in the presence of selection antibiotic purchased from InvivoGen and passaged when 70% confluence was reached per manufacturer's recommendation. […]

T1 sequence (O60603 21-784): as the sequence (O60603 21-784) above
T1 sequence (Q9Y2C9 32-796 partner): as the sequence (Q9Y2C9 32-796 partner) above

optical density (650 nm), Average (human TLR2; 0.12 pg/mL) | optical density (650 nm), screenings 1-3 (human TLR2; 0.12 pg/mL) | optical density (650 nm), Average (human TLR2; 0.49 pg/mL) | optical density (650 nm), screenings 1-3 (human TLR2; 0.49 pg/mL) | optical density (650 nm), Average (human TLR2; 1.95 pg/mL) | optical density (650 nm), screenings 1-3 (human TLR2; 1.95 pg/mL) | optical density (650 nm), Average (human TLR2; 7.81 pg/mL) | optical density (650 nm), screenings 1-3 (human TLR2; 7.81 pg/mL) | optical density (650 nm), Average (human TLR2; 31.25 pg/mL) | optical density (650 nm), screenings 1-3 (human TLR2; 31.25 pg/mL) | optical density (650 nm), Average (human TLR2; 125 pg/mL) | optical density (650 nm), screenings 1-3 (human TLR2; 125 pg/mL) | optical density (650 nm), Average (human TLR2; 500 pg/mL) | optical density (650 nm), screenings 1-3 (human TLR2; 500 pg/mL) | stimulatory (agonist) activity for hTLR2 (human TLR2) | optical density (650 nm), screenings 1-3 (human TLR2 (hTLR2) [1]; 0.1 ng/mL) | optical density (650 nm), screenings 1-3 (human TLR2 (hTLR2) [1]; 0.31 ng/mL) | stimulatory (agonist) activity for mTLR2 (mouse TLR2) | Structure (SMILES) | stimulatory response in HEK-Blue Null1 (human) cells (HEK-Blue Null1 cells) | stimulatory response in HEK-Blue Null2 (mouse) cells (HEK-Blue Null2 cells) | also measured
0.740 | 0.653 and 0.759 and 0.809 | 1.479 | 1.409 and 1.507 and 1.521 | 1.823 | 1.795 and 1.757 and 1.916 | 2.260 | 2.288 and 2.168 and 2.323 | 2.481 | 2.440 and 2.485 and 2.518 | 2.521 | 2.569 and 2.508 and 2.487 | 2.611 | 2.717 and 2.590 and 2.526 | possesses stimulatory activity | 0.182 and 0.206 and 0.197 | 0.126 and 0.115 | possesses stimulatory activity | CCCCCCCCCCCCCCC(C)C(=O)OC[C@H](CSC[C@H](N)C(=O)N[C@@H](CO)C(=O)NCCOCCOCCOCCOCCOCCOCCOCCOCCOCCOCCOCCOCCOCCOCCOCCOCCOCCOCCOCCOCCOCCOCCOCCOCCOCCOCCOCCOCCC(=O)NCC(N)=O)OC(=O)C(C)CCCCCCCCCCCCCC (stereo partly shown) [B4] | not observed | not observed | optical density (650 nm), screenings 1-3 (human TLR2 (hTLR2) [1]; 0.5 ng/mL): 0.719 and 0.594 and 0.617; optical density (650 nm), screenings 1-3 (human TLR2 (hTLR2) [1]; 2.0 ng/mL): 1.660 and 1.529 and 1.498; optical density (650 nm), screenings 1-3 (human TLR2 (hTLR2) [1]; 7.8 ng/mL): 2.214 and 2.163; optical density (650 nm), screenings 1-3 (human TLR2 (hTLR2) [1]; 31.3 ng/mL): 2.438 and 2.327 and 2.350; optical density (650 nm), screenings 1-3 (human TLR2 (hTLR2) [1]; 125 ng/mL): 2.451 and 2.411 and 2.467; formulation pH ([2]; 0-days): 5.6; formulation pH ([2]; 9-days, 40° C./75% RH): 5.7; formulation pH ([2]; 28-days, 40° C./75% RH): 5.7
1.362 | 1.443 and 1.313 and 1.329 | 1.860 | 1.892 and 1.785 and 1.902 | 2.045 | 2.149 and 2.008 and 1.979 | 2.411 | 2.420 and 2.446 and 2.366 | 2.457 | 2.492 and 2.500 and 2.380 | 2.568 | 2.608 and 2.541 and 2.555 | 2.471 | 2.584 and 2.404 and 2.426 | possesses stimulatory activity | 0.239 and 0.202 and 0.208 | 0.116 and 0.132 and 0.137 | possesses stimulatory activity | CCCCCCCCCCCCCCC(C)C(=O)OCC[C@H](CSC[C@H](N)C(=O)N[C@@H](CO)C(=O)NCCOCCOCCOCCOCCOCCOCCOCCOCCOCCOCCOCCOCCOCCOCCOCCOCCOCCOCCOCCOCCOCCOCCOCCOCCOCCOCCOCCOCCC(=O)NCC(N)=O)OC(=O)C(C)CCCCCCCCCCCCCC (stereo partly shown) [B12] | not observed | not observed | activity at TLR2 (human TLR2 (hTLR2) [3]): significant activity at TLR2; optical density (650 nm), screenings 1-3 (human TLR2 (hTLR2) [1]; 0.5 ng/mL): 0.585 and 0.558 and 0.559; optical density (650 nm), screenings 1-3 (human TLR2 (hTLR2) [1]; 2.0 ng/mL): 1.429 and 1.308 and 1.638; optical density (650 nm), screenings 1-3 (human TLR2 (hTLR2) [1]; 7.8 ng/mL): 2.187 and 2.257 and 2.302; optical density (650 nm), screenings 1-3 (human TLR2 (hTLR2) [1]; 31.3 ng/mL): 2.422 and 2.423 and 2.449; optical density (650 nm), screenings 1-3 (human TLR2 (hTLR2) [1]; 125 ng/mL): 2.409 and 2.564 and 2.615; formulation pH ([2]; 0-days): 5.6; formulation pH ([2]; 9-days, 40° C./75% RH): 5.7; formulation pH ([2]; 28-days, 40° C./75% RH): 5.7
0.823 | 0.826 and 0.869 and 0.774 | 1.342 | 1.256 and 1.364 and 1.406 | 2.018 | 1.994 and 2.061 and 2.000 | 2.562 | 2.569 and 2.545 and 2.571 | 2.744 | 2.820 and 2.720 and 2.691 | 2.814 | 2.928 and 2.800 and 2.713 | 2.759 | 2.722 and 2.765 and 2.791 | possesses stimulatory activity | – | – | possesses stimulatory activity | CCCCCCCCCCCCCC[C@@H](C)C(=O)OCC[C@H](CSC[C@H](N)C(=O)N[C@@H](CO)C(=O)NCCOCCOCCOCCOCCOCCOCCOCCOCCOCCOCCOCCOCCOCCOCCOCCOCCOCCOCCOCCOCCOCCOCCOCCOCCOCCOCCOCCOCCC(=O)NCC(N)=O)OC(=O)[C@H](C)CCCCCCCCCCCCCC [B14] | not observed | not observed | Fold Induction (human TLR2; 500 pg/mL): 33.9
0.666 | 0.688 and 0.591 and 0.718 | 1.099 | 1.080 and 1.097 and 1.121 | 1.521 | 1.478 and 1.513 and 1.573 | 1.978 | 1.903 and 1.897 and 2.133 | 2.252 | 2.093 and 2.297 and 2.367 | 2.540 | 2.531 and 2.544 and 2.545 | 2.475 | 2.466 and 2.488 and 2.472 | possesses stimulatory activity | – | – | possesses stimulatory activity | CCCCCCCCCCCCCC[C@H](C)C(=O)OCC[C@H](CSC[C@H](N)C(=O)N[C@@H](CO)C(=O)NCCOCCOCCOCCOCCOCCOCCOCCOCCOCCOCCOCCOCCOCCOCCOCCOCCOCCOCCOCCOCCOCCOCCOCCOCCOCCOCCOCCOCCC(=O)NCC(N)=O)OC(=O)[C@@H](C)CCCCCCCCCCCCCC [B16] | not observed | not observed | –
